This is an account of results in patent US20240336608A1, “IL4I1 INHIBITORS AND METHODS OF USE” (Merck Sharp & Dohme LLC, priority 2023, published 2024).

Structures are written as SMILES.

As usually defined, the EC50 is the concentration that produces a half-maximal response.

This assay has as its target T1, recombinant IL4I1 (Homo sapiens, UniProt Q96RQ9).
T1 construct: purchased R&D Systems 5684-AO-020
T1 sequence (Q96RQ9 22-567): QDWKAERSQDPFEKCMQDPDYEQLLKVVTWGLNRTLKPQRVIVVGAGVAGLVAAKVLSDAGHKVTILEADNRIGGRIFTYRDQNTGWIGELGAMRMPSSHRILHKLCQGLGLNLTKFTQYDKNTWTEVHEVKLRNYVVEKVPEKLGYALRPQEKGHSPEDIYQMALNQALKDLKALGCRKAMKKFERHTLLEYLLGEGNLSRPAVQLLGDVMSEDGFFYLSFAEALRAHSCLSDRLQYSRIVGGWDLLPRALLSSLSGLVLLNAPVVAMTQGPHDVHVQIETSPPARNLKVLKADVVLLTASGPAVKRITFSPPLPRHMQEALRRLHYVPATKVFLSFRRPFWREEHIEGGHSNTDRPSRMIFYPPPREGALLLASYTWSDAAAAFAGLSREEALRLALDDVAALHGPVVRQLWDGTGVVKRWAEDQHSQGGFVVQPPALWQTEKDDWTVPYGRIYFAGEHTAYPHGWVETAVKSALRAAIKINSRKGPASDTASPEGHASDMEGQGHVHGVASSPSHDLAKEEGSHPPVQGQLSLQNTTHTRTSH
Put plainly: IL4I1 Enzymatic Assay (Amplex Red/HRP coupled detection of H2O2, fluorescence). The note with it: 1 nM recombinant IL4I1; four-hour pre-incubation with compound; 1 mM each Phe, Tyr, Trp; ten-point titration. The assay is classed as biochemical. The essentials: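 H2O2 output was coupled to resorufin fluorescence (ex 544/em 590) via 0.05 mM Amplex Red and 1 U/mL HRP. Substrate: Phe, Tyr, Trp at 1 mM each; enzyme 1 nM, 4 h compound pre-incubation, 120 min reaction, pH 7.0 Hepes. EC50 by nonlinear four-parameter regression, 1:3 ten-point titration.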

Take `Cc1ccc(-n2cc(C(=O)NCc3nnc(-c4ccccc4Cl)s3)nn2)c(C)n1` [Example 112, N-((5-(2-chlorophenyl)-1,3,4-thiadiazol-2-yl)methyl)-1-(2,6-dimethylpyridin-3-yl)-1H-1,2,3-triazole-4-carboxamide]: the EC50 was determined as 82 nM.
Regarding `Cc1ccc(-n2cc(C(=O)NCc3nnc(-c4ccc(Cl)cc4)s3)nn2)c(C)n1` [Example 113, N-((5-(4-chlorophenyl)-1,3,4-thiadiazol-2-yl)methyl)-1-(2,6-dimethylpyridin-3-yl)-1H-1,2,3-triazole-4-carboxamide], the EC50 was determined as 838 nM.
In the case of `Cc1ccc(-n2cc(C(=O)NCc3nnc(-c4ccccc4F)s3)nn2)c(C)n1` [Example 114, 1-(2,6-dimethylpyridin-3-yl)-N-((5-(2-fluorophenyl)-1,3,4-thiadiazol-2-yl)methyl)-1H-1,2,3-triazole-4-carboxamide], the EC50 is 37 nM.
Consider `Cc1ccc(-n2cc(C(=O)NCc3nnc(-c4ccc(O)cc4)s3)nn2)c(C)n1` [Example 115, 1-(2,6-dimethylpyridin-3-yl)-N-((5-(4-hydroxyphenyl)-1,3,4-thiadiazol-2-yl)methyl)-1H-1,2,3-triazole-4-carboxamide], for which the concentration for a half-maximal effect (EC50) was determined as 36 nM.
With `Cc1ccc(-n2cc(C(=O)NCc3ccc(-c4ccccc4F)nn3)nn2)c(C)n1` [Example 116, 1-(2,6-dimethylpyridin-3-yl)-N-((6-(2-fluorophenyl)pyridazin-3-yl)methyl)-1H-1,2,3-triazole-4-carboxamide], the EC50 worked out at 74 nM.
Consider `Cc1ccc(-n2cc(C(=O)NCc3ccc(-c4cccc(F)c4F)nn3)nn2)c(C)n1` [Example 117, N-((6-(2,3-difluorophenyl)pyridazin-3-yl)methyl)-1-(2,6-dimethylpyridin-3-yl)-1H-1,2,3-triazole-4-carboxamide], for which the EC50 stood at 692 nM.
Regarding `Cc1ccc(-n2cc(C(=O)NCc3ccc(-c4ccsc4)nn3)nn2)c(C)n1` [Example 118, 1-(2,6-dimethylpyridin-3-yl)-N-((6-(thiophen-3-yl)pyridazin-3-yl)methyl)-1H-1,2,3-triazole-4-carboxamide], the EC50 was found to be 31 nM.
For `Cc1ccc(-n2cc(C(=O)NCc3ccc(-c4ccccc4Cl)nn3)nn2)c(C)n1` [Example 119, N-((6-(2-chlorophenyl)pyridazin-3-yl)methyl)-1-(2,6-dimethylpyridin-3-yl)-1H-1,2,3-triazole-4-carboxamide], the EC50 was found to be 482 nM.
With `Cc1ccc(-n2cc(C(=O)NCc3ccc(-c4cccc(F)c4)nn3)nn2)c(C)n1` [Example 120, 1-(2,6-dimethylpyridin-3-yl)-N-((6-(3-fluorophenyl)pyridazin-3-yl)methyl)-1H-1,2,3-triazole-4-carboxamide], the concentration for a half-maximal effect (EC50) stood at 123 nM.
Consider `Cc1ccc(-n2cc(C(=O)NCc3ccc(-c4cccs4)nn3)nn2)c(C)n1` [Example 121, 1-(2,6-dimethylpyridin-3-yl)-N-((6-(thiophen-2-yl)pyridazin-3-yl)methyl)-1H-1,2,3-triazole-4-carboxamide], for which the concentration for a half-maximal effect (EC50) worked out at 24 nM.
As for `Cc1ccc(-n2cc(C(=O)NCc3ccc(-c4sccc4C)nn3)nn2)c(C)n1` [Example 122, 1-(2,6-dimethylpyridin-3-yl)-N-((6-(3-methylthiophen-2-yl)pyridazin-3-yl)methyl)-1H-1,2,3-triazole-4-carboxamide], the EC50 is 571 nM.
Under `Cc1ccc(-n2cc(C(=O)NCc3ccc(-c4cc(F)ccc4F)nn3)nn2)c(C)n1` [Example 123, N-((6-(2,5-difluorophenyl)pyridazin-3-yl)methyl)-1-(2,6-dimethylpyridin-3-yl)-1H-1,2,3-triazole-4-carboxamide] stands 223 nM; under `CC1(n2cc(C(=O)NCc3nnc(-c4ccccc4)s3)nn2)CCC1` [Example 124, 1-(1-methylcyclobutyl)-N-((5-phenyl-1,3,4-thiadiazol-2-yl)methyl)-1H-1,2,3-triazole-4-carboxamide], 23 nM.
Turning to `O=C(NCc1nnc(-c2ccccc2)s1)c1cn(CCN2CCNC2=O)nn1` [Example 125, 1-(2-(2-oxoimidazolidin-1-yl)ethyl)-N-((5-phenyl-1,3,4-thiadiazol-2-yl)methyl)-1H-1,2,3-triazole-4-carboxamide], the EC50 worked out at 453 nM.
Consider `CC(C)(Cn1cc(C(=O)NCc2nnc(-c3ccccc3)s2)nn1)C(N)=O` [Example 126, 1-(3-amino-2,2-dimethyl-3-oxo-propyl)-N-[(5-phenyl-1,3,4-thiadiazol-2-yl)methyl]triazole-4-carboxamide], for which the EC50 was 843 nM.
For `O=C(NCc1nnc(-c2ccccc2)s1)c1cn(CC(O)C(F)(F)F)nn1` (stereo not shown) [Example 127, N-((5-phenyl-1,3,4-thiadiazol-2-yl)methyl)-1-(3,3,3-trifluoro-2-hydroxypropyl)-1H-1,2,3-triazole-4-carboxamide], the EC50 was 73 nM.
On to `C[C@H](O)Cn1cc(C(=O)NCc2nnc(-c3ccccc3)s2)nn1` [Example 128, (S)-1-(2-hydroxypropyl)-N-((5-phenyl-1,3,4-thiadiazol-2-yl)methyl)-1H-1,2,3-triazole-4-carboxamide], for which the EC50 came out at 27 nM.
For the compound `O=C(NCc1nnc(-c2ccccc2)s1)c1cn(CC2CCOC2)nn1` (stereo not shown) [Example 129, N-((5-phenyl-1,3,4-thiadiazol-2-yl)methyl)-1-((tetrahydrofuran-3-yl)methyl)-1H-1,2,3-triazole-4-carboxamide], the 50% effective concentration (EC50) was 124 nM.
Take `C[C@@H]1C[C@H]1n1cc(C(=O)NCc2nnc(-c3ccccc3)s2)nn1` [Example 134, 1-((1R,2R)-2-methylcyclopropyl)-N-((5-phenyl-1,3,4-thiadiazol-2-yl)methyl)-1H-1,2,3-triazole-4-carboxamide]: the concentration for a half-maximal effect (EC50) is 166 nM.
Take `O=C(NCc1nnc(-c2ccccc2)s1)c1cn(CC2(F)CCC2)nn1` [Example 135, 1-((1-fluorocyclobutyl)methyl)-N-((5-phenyl-1,3,4-thiadiazol-2-yl)methyl)-1H-1,2,3-triazole-4-carboxamide]: the concentration for a half-maximal effect (EC50) is 100 nM.
As to `O=C(NCc1nnc(-c2ccccc2)s1)c1cn(CC2(O)CC2)nn1` [Example 136, 1-((1-hydroxycyclopropyl)methyl)-N-((5-phenyl-1,3,4-thiadiazol-2-yl)methyl)-1H-1,2,3-triazole-4-carboxamide], the concentration giving a half-maximal response (EC50) was 29 nM.
In the case of `O=C(NCc1nnc(-c2ccccc2)s1)c1cn(CC2(O)CCC2)nn1` [Example 137, 1-((1-hydroxycyclobutyl)methyl)-N-((5-phenyl-1,3,4-thiadiazol-2-yl)methyl)-1H-1,2,3-triazole-4-carboxamide], the EC50 came out at 574 nM.
Consider `O=C(NCc1nnc(-c2ccccc2)s1)c1cn(CC2(O)COC2)nn1` [Example 140, 1-((3-hydroxyoxetan-3-yl)methyl)-N-((5-phenyl-1,3,4-thiadiazol-2-yl)methyl)-1H-1,2,3-triazole-4-carboxamide], for which the EC50 was 10 nM.
As for `C[C@@H](C1COC1)n1cc(C(=O)NCc2nnc(-c3ccccc3)s2)nn1` [Example 148, (S)-1-(1-(oxetan-3-yl)ethyl)-N-((5-phenyl-1,3,4-thiadiazol-2-yl)methyl)-1H-1,2,3-triazole-4-carboxamide], the concentration for a half-maximal effect (EC50) came to 164 nM.
For `C[C@H](C1COC1)n1cc(C(=O)NCc2nnc(-c3ccccc3)s2)nn1` [Example 149, (R)-1-(1-(oxetan-3-yl)ethyl)-N-((5-phenyl-1,3,4-thiadiazol-2-yl)methyl)-1H-1,2,3-triazole-4-carboxamide], the concentration giving a half-maximal response (EC50) came out at 132 nM.
Regarding `O=C(NCc1nnc(-c2ccccc2)s1)c1cn(CC2(F)CC2)nn1` [Example 150, 1-((1-fluorocyclopropyl)methyl)-N-((5-phenyl-1,3,4-thiadiazol-2-yl)methyl)-1H-1,2,3-triazole-4-carboxamide], the concentration for a half-maximal effect (EC50) came to 4 nM.
As to `O=C(NCc1nnc(-c2ccccc2)s1)c1cn(C2(CF)CC2)nn1` [Example 151, 1-(1-(fluoromethyl)cyclopropyl)-N-((5-phenyl-1,3,4-thiadiazol-2-yl)methyl)-1H-1,2,3-triazole-4-carboxamide], the concentration giving a half-maximal response (EC50) amounted to 25 nM.
As to `O=C(NCc1nnc(-c2ccccc2)s1)c1cn(C2(C(F)F)CC2)nn1` [Example 152, 1-(1-(difluoromethyl)cyclopropyl)-N-((5-phenyl-1,3,4-thiadiazol-2-yl)methyl)-1H-1,2,3-triazole-4-carboxamide], the concentration for a half-maximal effect (EC50) worked out at 167 nM.
With `O=C(NCc1nnc(-c2ccccc2)s1)c1cn(C2(C(F)(F)F)CC2)nn1` [Example 153, N-((5-phenyl-1,3,4-thiadiazol-2-yl)methyl)-1-(1-(trifluoromethyl)cyclopropyl)-1H-1,2,3-triazole-4-carboxamide], the EC50 was found to be 593 nM.
With `O=C(NCc1nnc(-c2ccccc2)s1)c1cn(Cc2ccno2)nn1` [Example 154, 1-(isoxazol-5-ylmethyl)-N-((5-phenyl-1,3,4-thiadiazol-2-yl)methyl)-1H-1,2,3-triazole-4-carboxamide], the EC50 came out at 49 nM.
As to `CC(c1ccno1)n1cc(C(=O)NCc2nnc(-c3ccccc3)s2)nn1` (stereo not shown) [Example 155, 1-(1-(isoxazol-5-yl)ethyl)-N-((5-phenyl-1,3,4-thiadiazol-2-yl)methyl)-1H-1,2,3-triazole-4-carboxamide], the EC50 came to 13 nM.
